Measured values as given in ChEMBL document CHEMBL4673375, “Discovery of a series of 1H-pyrrolo[2,3-b]pyridine compounds as potent TNIK inhibitors” (Bioorg Med Chem Lett, 2021).
The source made the active and inactive calls. The calls are words filed in the database; no cut-off is given here.

How the values were obtained:
[1] = molecular target: T1, TRAF2 and NCK-interacting protein kinase (Homo sapiens, UniProt Q9UKE5); assay: Inhibition of TNIK (unknown origin)
Target sequence in this assay (Q9UKE5 whole entry): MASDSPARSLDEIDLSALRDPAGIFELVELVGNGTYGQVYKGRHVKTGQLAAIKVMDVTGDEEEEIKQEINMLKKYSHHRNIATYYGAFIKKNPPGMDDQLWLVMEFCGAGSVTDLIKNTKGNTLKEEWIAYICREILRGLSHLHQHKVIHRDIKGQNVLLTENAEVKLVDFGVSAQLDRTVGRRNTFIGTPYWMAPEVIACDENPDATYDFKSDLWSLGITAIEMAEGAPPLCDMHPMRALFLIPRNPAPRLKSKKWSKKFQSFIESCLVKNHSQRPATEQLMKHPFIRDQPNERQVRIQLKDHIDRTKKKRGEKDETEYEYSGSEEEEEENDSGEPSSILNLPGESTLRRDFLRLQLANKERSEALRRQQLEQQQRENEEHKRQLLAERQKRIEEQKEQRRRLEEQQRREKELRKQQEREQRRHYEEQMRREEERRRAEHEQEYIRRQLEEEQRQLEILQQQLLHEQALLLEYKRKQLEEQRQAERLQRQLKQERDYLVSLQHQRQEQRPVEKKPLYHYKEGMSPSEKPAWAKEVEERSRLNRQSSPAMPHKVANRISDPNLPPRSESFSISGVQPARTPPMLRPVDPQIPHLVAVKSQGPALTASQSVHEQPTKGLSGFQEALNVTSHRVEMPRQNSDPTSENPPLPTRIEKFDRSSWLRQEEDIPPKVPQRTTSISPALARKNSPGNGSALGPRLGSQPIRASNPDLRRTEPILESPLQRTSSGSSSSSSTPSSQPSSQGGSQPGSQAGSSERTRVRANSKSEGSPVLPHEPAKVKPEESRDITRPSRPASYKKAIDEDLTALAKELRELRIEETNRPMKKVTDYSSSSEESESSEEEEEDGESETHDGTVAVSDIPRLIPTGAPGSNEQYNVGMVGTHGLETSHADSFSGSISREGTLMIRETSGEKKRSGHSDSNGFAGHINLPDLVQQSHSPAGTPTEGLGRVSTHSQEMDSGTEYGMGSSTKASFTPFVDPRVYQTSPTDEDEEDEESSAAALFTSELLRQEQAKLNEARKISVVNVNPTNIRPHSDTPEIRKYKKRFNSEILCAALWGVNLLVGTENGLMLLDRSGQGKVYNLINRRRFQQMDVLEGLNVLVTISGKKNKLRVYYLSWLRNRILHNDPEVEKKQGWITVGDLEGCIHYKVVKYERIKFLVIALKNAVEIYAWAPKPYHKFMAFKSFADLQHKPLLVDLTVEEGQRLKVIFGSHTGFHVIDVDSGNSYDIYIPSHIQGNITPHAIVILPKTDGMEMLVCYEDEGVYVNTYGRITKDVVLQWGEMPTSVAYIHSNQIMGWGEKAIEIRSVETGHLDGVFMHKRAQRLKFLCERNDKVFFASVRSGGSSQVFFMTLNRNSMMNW

[2] = molecular target: T1, TRAF2 and NCK-interacting protein kinase; assay: Inhibition of TNIK in PMA/anti-CD3 antibody-stimulated human Jurkat cells assessed as IL2 level at 10 uM incubated for 24 hrs by ELISA; assay type: cell-based
Target sequence in this assay (Q9UKE5 whole entry, looked up): as the sequence (Q9UKE5 whole entry) above

[3] = molecular target: T1, TRAF2 and NCK-interacting protein kinase; assay: Inhibition of TNIK in human Jurkat cells assessed as reduction in PMA/anti-CD3 antibody-induced IL2 level incubated for 24 hrs by ELISA; assay type: cell-based; conditions: dose 1-10 µM
Target sequence in this assay (Q9UKE5 whole entry, looked up): as the sequence (Q9UKE5 whole entry) above

[4] = molecular target: T1, TRAF2 and NCK-interacting protein kinase; assay: Inhibition of TNIK in human Jurkat cells assessed as reduction in PMA/anti-CD3 antibody-induced IL2 secretion at 1 uM incubated for 24 hrs by ELISA; assay type: cell-based
Target sequence in this assay (Q9UKE5 whole entry, looked up): as the sequence (Q9UKE5 whole entry) above

IC50 [1] [pM] | Structure (SMILES) | further results
27000 | CNC(=O)c1cccc(-c2c[nH]c3ncc(-c4ccc(CN5CCN(C)CC5)cc4)cc23)c1 | 
9200 | c1ccc(-c2cnc3[nH]cc(-c4ccccc4)c3c2)cc1 | 
14000 | CN1CCN(Cc2ccc(-c3cnc4[nH]cc(-c5ccc(Cl)cc5)c4c3)cc2)CC1 | 
180 | CNC(=O)c1cccc(-c2cnc3[nH]cc(-c4cc(C#N)cc(NS(C)(=O)=O)c4)c3c2)c1 | 
130 | CN1CCN(Cc2ccc(-c3cnc4[nH]cc(-c5cc(C#N)cc(NS(C)(=O)=O)c5)c4c3)cc2)CC1 | Activity [2]: < 25 pg/mL; inhibition [3]: Dose-dependent effect
440 | CN1CCN(Cc2ccc(-c3cnc4[nH]cc(-c5ccc6[nH]ncc6c5)c4c3)cc2)CC1 | 
330 | CC(C)(Oc1ccc(-c2cnc3[nH]cc(-c4cc(C#N)cc(NS(C)(=O)=O)c4)c3c2)cc1)C(=O)O | inhibition [3]: Dose-dependent effect
470 | CC(C)(C(=O)O)c1ccc(-c2cnc3[nH]cc(-c4cc(C#N)cc(NS(C)(=O)=O)c4)c3c2)cc1 | inhibition [3]: Dose-dependent effect
800 | Cn1cc(-c2ccc(-c3cnc4[nH]cc(-c5cc(C#N)cc(NS(C)(=O)=O)c5)c4c3)cc2)cn1 | 
19000 | CN1CCN(Cc2ccc(-c3cnc4[nH]cc(-c5ccc(F)cc5)c4c3)cc2)CC1 | 
250 | CN1CCN(C(=O)c2cccc(-c3cnc4[nH]cc(-c5cc(C#N)cc(NS(C)(=O)=O)c5)c4c3)c2)CC1 | 
31000 | CN1CCN(Cc2ccc(-c3cnc4[nH]cc(-c5cccc6ccccc56)c4c3)cc2)CC1 | 
300 | CNC(=O)c1cccc(-c2cnc3[nH]cc(-c4cc(C#N)c(Cl)c(NS(C)(=O)=O)c4)c3c2)c1 | 
210 | CS(=O)(=O)Nc1cc(C#N)cc(-c2c[nH]c3ncc(-c4cccc(C(=O)N5CCCC5)c4)cc23)c1 | 
120 | CS(=O)(=O)Nc1cc(C#N)cc(-c2c[nH]c3ncc(-c4cccc(C(=O)NC5CC5)c4)cc23)c1 | 
18000 | CN1CCN(Cc2ccc(-c3cnc4[nH]cc(-c5ccc(NS(C)(=O)=O)cc5)c4c3)cc2)CC1 | 

IC50 [1] [pM] | Structure (SMILES) | further results
5200 | CN1CCN(Cc2ccc(-c3cnc4[nH]cc(-c5ccc6[nH]ccc6c5)c4c3)cc2)CC1 | 
210 | CN1CCN(C(=O)c2ccc(-c3cnc4[nH]cc(-c5cc(C#N)cc(NS(C)(=O)=O)c5)c4c3)cc2)CC1 | 
220 | CS(=O)(=O)Nc1cc(C#N)cc(-c2c[nH]c3ncc(-c4cccc(C(=O)N5CCCCC5)c4)cc23)c1 | 
15000 | CN1CCN(Cc2ccc(-c3cnc4[nH]cc(-c5cccc(N)c5)c4c3)cc2)CC1 | 
7100 | CN1CCN(Cc2ccc(-c3cnc4[nH]cc(-c5cccc(NS(C)(=O)=O)c5)c4c3)cc2)CC1 | 
910 | CN1CCN(Cc2ccc(-c3cnc4[nH]cc(-c5cccc(C#N)c5)c4c3)cc2)CC1 | 
7900 | CN1CCN(Cc2ccc(-c3cnc4[nH]cc(-c5cnc6[nH]ncc6c5)c4c3)cc2)CC1 | 
190 | CN1CCN(Cc2ccc(-c3cnc4[nH]cc(-c5cc(C#N)cc(NS(=O)(=O)C6CC6)c5)c4c3)cc2)CC1 | Activity [2]: < 25 pg/mL; inhibition [3]: Dose-dependent effect
680 | CN1CCC(n2cc(-c3cnc4[nH]cc(-c5cc(C#N)c(Cl)c(NS(C)(=O)=O)c5)c4c3)cn2)CC1 | Activity [2]: < 25 pg/mL; inhibition [3]: Dose-dependent effect
430 | CN1CCN(Cc2ccc(-c3cnc4[nH]cc(-c5cc(C#N)c(Cl)c(NS(C)(=O)=O)c5)c4c3)cc2)CC1 | inhibition [3]: Dose-dependent effect
3800 | CN1CCN(Cc2ccc(-c3cnc4[nH]cc(-c5ccc6[nH]cnc6c5)c4c3)cc2)CC1 | 
230 | CN1CCN(Cc2ccc(-c3cnc4[nH]cc(-c5cc(C#N)c6[nH]ncc6c5)c4c3)cc2)CC1 | Activity [2]: < 25 pg/mL; inhibition [4]: inactive
14000 | CN1CCN(Cc2ccc(-c3cnc4[nH]cc(-c5ccccc5)c4c3)cc2)CC1 | 
43000 | CN1CCN(Cc2ccc(-c3cnc4[nH]cc(-c5cccc(C(=O)N(C)C)c5)c4c3)cc2)CC1 | 
220 | CN(C)C1CCN(C(=O)c2cccc(-c3cnc4[nH]cc(-c5cc(C#N)cc(NS(C)(=O)=O)c5)c4c3)c2)C1 (stereo not drawn) | 
12000 | CC(=O)Nc1cccc(-c2c[nH]c3ncc(-c4ccc(CN5CCN(C)CC5)cc4)cc23)c1 | 
